Reference: US11981658B2, “Substituted aminopyridine compounds as EGFR inhibitors” (YUHAN CORPORATION, priority 2021, dated 2024)
Counter-ions that a name gives are not always drawn. Like-named read-outs stand apart in the source and are kept apart here.

Assays:
[1] = target: EGFR Del19/T790M/C797S (Homo sapiens, UniProt P00533, C797S/DEL746-750/T790M); assay: Biochemical EGFR kinase inhibition assay (Lance Ultra TR-FRET), triple mutant del19/T790M/C797S
Summary of the method: (§1)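 In this biochemical assay, phosphorylation after a one-hour room-temperature reaction was detected with europium-labelled anti-phosphopeptide antibody at 2 nM final concentration.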

[2] = target: EGFR L858R/T790M/C797S (Homo sapiens, UniProt P00533, C797S/L858R/T790M); assay: Biochemical EGFR kinase inhibition assay (Lance Ultra TR-FRET), triple mutant L858R/T790M/C797S
Summary of the method: as §1

[3] = target: EGFR Del19/C797S (Homo sapiens, UniProt P00533, C797S/DEL746-750); assay: Biochemical EGFR kinase inhibition assay (Lance Ultra TR-FRET), double mutant del19/C797S
Summary of the method: as §1

[4] = target: EGFR L858R/C797S (Homo sapiens, UniProt P00533, C797S/L858R); assay: Biochemical EGFR kinase inhibition assay (Lance Ultra TR-FRET), double mutant L858R/C797S
Summary of the method: as §1

[5] = target: EGFR wildtype (WT) (Homo sapiens, UniProt P00533); assay: Biochemical EGFR kinase inhibition assay (Lance Ultra TR-FRET), wildtype
Summary of the method: as §1

[6] = IC50 Del19/T790M/C797S (nM), 100 μM ATP
[7] = Km ATP, read-out: IC50 Del19/T790M/C797S (nM) Km ATP
[8] = IC50 L858R/T790M/C797S (nM), 100 μM ATP
[9] = Km ATP, read-out: IC50 L858R/T790M/C797S (nM) Km ATP
[10] = IC50 Del19/C797S (nM), 100 μM ATP
[11] = Km ATP, read-out: IC50 Del19/C797S (nM) Km ATP
[12] = IC50 L858R/C797S (nM), 100 μM ATP
[13] = Km ATP, read-out: IC50 L858R/C797S (nM) Km ATP
[14] = Km ATP, read-out: IC50 WT (nM) Km ATP
[15] = ATP at Km, read-out: IC50 Del19/T790M/C797S (nM), Km ATP
[16] = ATP at Km, read-out: IC50 L858R/T790M/C797S (nM), Km ATP
[17] = ATP at Km, read-out: IC50 Del19/C797S (nM), Km ATP
[18] = ATP at Km, read-out: IC50 L858R/C797S (nM), Km ATP
[19] = ATP at Km, read-out: IC50 WT (nM), Km ATP
[20] = Km ATP, read-out: IC50 Del19/T790M/C797S (nM), Km ATP
[21] = Km ATP, read-out: IC50 L858R/T790M/C797S (nM), Km ATP
[22] = Km ATP, read-out: IC50 Del19/C797S (nM), Km ATP
[23] = Km ATP, read-out: IC50 L858R/C797S (nM), Km ATP
[24] = Km ATP, read-out: IC50 WT (nM), Km ATP

Sequence of EGFR wildtype (WT) (P00533 25-1210): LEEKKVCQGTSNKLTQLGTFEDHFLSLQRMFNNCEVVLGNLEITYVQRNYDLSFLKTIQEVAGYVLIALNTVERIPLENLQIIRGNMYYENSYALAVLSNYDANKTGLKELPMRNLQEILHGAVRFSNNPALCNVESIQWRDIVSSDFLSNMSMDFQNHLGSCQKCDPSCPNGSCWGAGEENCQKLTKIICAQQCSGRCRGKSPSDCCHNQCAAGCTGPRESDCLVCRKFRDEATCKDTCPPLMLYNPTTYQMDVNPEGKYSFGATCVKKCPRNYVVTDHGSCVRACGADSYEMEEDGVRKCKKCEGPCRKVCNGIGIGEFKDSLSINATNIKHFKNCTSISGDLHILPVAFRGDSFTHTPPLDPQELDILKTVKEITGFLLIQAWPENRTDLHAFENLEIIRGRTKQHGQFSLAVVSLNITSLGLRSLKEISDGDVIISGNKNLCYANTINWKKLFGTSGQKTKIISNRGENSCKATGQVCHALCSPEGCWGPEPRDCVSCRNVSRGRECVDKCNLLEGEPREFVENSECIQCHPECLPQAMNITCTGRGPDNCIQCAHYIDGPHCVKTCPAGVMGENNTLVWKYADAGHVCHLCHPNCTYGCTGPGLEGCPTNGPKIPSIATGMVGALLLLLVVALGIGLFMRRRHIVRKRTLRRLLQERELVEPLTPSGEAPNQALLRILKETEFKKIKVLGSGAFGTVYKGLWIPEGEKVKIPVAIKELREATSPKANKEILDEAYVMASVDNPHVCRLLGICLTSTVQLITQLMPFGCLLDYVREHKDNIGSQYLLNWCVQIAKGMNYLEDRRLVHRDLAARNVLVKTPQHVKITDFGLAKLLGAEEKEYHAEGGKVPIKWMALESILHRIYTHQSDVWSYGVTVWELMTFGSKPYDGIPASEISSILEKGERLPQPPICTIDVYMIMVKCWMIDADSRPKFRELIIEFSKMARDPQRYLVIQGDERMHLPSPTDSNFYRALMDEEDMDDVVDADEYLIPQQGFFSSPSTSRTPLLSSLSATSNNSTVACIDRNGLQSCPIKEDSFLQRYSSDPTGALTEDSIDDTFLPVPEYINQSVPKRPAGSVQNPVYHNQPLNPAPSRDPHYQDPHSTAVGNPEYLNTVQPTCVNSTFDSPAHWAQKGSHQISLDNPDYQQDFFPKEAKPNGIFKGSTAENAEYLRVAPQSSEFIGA
Sequence of EGFR Del19/T790M/C797S (P00533 with tags, fused parts or gaps DEL746-750/T790M/C797S): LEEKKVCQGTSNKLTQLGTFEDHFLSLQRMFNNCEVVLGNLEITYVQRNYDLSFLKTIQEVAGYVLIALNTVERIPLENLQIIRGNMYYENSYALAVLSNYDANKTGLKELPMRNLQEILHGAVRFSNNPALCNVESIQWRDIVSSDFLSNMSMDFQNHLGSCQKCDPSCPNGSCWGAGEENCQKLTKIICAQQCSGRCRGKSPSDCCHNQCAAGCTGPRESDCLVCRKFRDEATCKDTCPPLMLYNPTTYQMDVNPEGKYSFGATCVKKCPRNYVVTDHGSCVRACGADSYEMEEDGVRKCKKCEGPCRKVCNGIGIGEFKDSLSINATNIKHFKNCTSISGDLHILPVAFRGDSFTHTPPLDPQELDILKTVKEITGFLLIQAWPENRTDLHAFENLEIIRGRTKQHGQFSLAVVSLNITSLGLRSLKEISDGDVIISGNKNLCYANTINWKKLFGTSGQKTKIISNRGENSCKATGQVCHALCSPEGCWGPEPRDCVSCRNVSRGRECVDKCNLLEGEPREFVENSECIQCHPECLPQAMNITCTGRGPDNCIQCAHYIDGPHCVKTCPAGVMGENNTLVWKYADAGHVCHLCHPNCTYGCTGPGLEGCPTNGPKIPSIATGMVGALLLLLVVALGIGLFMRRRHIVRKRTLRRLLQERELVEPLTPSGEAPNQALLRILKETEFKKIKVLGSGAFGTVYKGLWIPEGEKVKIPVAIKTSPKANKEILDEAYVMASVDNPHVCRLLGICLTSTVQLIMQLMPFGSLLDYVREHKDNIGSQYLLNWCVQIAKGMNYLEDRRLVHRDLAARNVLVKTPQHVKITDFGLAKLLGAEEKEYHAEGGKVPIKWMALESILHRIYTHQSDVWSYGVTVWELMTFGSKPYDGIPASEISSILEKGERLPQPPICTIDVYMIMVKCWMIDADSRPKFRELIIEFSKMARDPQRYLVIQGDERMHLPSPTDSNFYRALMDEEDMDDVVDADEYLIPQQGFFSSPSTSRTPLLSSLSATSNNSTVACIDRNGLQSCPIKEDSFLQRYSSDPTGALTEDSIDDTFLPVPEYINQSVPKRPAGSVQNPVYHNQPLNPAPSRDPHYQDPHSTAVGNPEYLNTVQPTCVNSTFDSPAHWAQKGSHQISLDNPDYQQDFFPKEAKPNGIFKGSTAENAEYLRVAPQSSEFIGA
Sequence of EGFR Del19/C797S (P00533 with tags, fused parts or gaps DEL746-750/C797S): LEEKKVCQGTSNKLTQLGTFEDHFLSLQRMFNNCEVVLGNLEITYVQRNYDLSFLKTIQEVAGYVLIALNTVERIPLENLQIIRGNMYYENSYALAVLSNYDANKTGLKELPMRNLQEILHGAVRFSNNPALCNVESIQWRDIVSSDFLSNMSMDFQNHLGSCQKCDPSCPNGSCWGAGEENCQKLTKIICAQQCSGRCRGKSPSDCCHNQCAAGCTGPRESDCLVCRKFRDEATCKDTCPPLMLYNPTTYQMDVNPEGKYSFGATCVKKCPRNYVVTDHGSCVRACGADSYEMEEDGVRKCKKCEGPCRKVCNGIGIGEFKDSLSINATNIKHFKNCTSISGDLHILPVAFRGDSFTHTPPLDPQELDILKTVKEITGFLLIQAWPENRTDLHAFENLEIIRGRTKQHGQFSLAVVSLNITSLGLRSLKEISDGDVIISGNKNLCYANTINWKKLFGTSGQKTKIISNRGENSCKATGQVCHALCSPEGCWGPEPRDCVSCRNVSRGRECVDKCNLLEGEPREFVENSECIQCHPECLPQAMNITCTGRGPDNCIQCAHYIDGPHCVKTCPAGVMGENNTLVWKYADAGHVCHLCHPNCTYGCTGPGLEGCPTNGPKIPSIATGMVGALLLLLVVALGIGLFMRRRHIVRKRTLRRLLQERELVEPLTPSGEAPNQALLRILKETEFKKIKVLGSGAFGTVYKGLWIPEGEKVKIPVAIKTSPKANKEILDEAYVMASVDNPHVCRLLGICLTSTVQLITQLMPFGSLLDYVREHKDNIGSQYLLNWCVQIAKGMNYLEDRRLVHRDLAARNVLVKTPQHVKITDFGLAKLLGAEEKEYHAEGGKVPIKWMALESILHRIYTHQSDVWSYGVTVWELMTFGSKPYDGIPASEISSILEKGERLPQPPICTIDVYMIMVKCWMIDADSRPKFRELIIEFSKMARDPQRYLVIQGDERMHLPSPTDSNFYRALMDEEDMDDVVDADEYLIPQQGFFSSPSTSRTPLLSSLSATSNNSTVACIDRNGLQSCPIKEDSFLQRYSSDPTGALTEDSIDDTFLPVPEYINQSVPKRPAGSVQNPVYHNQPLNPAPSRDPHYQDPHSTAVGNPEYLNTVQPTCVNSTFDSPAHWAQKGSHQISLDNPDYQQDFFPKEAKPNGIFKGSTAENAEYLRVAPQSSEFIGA
Sequence of EGFR L858R/C797S (P00533 25-1210 C797S/L858R): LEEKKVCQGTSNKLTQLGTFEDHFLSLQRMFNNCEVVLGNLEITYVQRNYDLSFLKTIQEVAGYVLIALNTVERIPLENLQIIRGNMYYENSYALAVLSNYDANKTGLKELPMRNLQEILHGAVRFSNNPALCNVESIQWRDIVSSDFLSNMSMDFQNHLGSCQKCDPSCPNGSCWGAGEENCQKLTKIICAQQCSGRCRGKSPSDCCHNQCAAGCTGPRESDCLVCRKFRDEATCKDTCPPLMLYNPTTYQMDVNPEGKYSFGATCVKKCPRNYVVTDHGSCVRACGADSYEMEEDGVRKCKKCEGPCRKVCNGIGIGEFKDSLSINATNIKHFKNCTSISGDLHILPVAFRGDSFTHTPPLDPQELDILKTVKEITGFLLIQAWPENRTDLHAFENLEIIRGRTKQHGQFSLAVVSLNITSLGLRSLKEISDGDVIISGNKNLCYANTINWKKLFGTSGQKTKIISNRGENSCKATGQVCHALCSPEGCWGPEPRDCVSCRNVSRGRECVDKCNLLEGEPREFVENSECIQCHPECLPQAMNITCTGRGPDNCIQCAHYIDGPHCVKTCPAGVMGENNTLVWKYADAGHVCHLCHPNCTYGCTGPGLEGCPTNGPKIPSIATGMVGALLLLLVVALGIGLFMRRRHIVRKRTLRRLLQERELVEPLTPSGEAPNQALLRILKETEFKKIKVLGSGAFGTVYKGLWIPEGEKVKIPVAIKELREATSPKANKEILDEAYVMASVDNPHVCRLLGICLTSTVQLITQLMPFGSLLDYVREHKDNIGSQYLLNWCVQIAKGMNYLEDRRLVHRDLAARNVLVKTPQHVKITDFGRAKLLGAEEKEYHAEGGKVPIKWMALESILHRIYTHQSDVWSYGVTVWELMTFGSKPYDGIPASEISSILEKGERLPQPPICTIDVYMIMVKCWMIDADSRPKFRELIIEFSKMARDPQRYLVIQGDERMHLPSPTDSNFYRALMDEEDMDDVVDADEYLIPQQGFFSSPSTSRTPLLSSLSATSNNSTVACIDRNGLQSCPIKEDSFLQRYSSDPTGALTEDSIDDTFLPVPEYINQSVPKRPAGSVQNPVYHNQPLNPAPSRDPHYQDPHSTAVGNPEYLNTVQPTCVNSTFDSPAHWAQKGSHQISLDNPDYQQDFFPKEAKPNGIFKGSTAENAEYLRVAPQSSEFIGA

IC50 [1, 6] [nM] | IC50 [2, 8] [nM] | IC50 [3, 10] [nM] | IC50 [4, 12] [nM] | IC50 [4, 13] [nM] | IC50 ([5]; IC50 WT (nM), 100 μM ATP) [nM] | IC50 [1, 15] [nM] | IC50 [2, 16] [nM] | IC50 [3, 17] [nM] | IC50 [4, 18] [nM] | IC50 [5, 19] [nM] | IC50 [3, 22] [nM] | IC50 [4, 23] [nM] | IC50 [5, 24] [nM] | Compound | other results
4.1 | 3 | 12.4 | 119 | 32.3 | > 10000 | – | – | – | – | – | – | – | – | CC1(O)CC2(CCN(c3cc(Nc4ccnc(-c5cnn(S(=O)(=O)C6CC6)c5)n4)ncc3C#Cc3cnn(C(F)(F)F)c3)CC2)C1 [Example 104, 7-(2-((2-(1-(Cyclopropylsulfonyl)-1H-pyrazol-4-yl)pyrimidin-4-yl)amino)-5-((1-(trifluoromethyl)-1H-pyrazol-4-yl)ethynyl)pyridin-4-yl)-2-methyl-7-azaspiro[3.5]nonan-2-ol] | IC50 [1, 7]: 3.1 nM; IC50 [2, 9]: 1.1 nM; IC50 [3, 11]: 9.7 nM; IC50 [5, 14]: 89.4 nM
0.7 | 0.5 | 0.6 | 0.6 | – | 111 | 0.6 | 0.1 | 0.2 | 0.6 | 0.6 | – | – | – | CN1CCN(Cc2ccc(C#Cc3cnc(Nc4ccnc(-c5cnn(S(=O)(=O)C6CC6)c5)n4)cc3N3CCC(C)(CO)CC3)cn2)CC1 [Example 279, (1-(2-((2-(1-(Cyclopropylsulfonyl)-1H-pyrazol-4-yl)pyrimidin-4-yl)amino)-5-((6-((4-methylpiperazin-1-yl)methyl)pyridin-3-yl)ethynyl)pyridin-4-yl)-4-methylpiperidin-4-yl)methanol] | –
1 | 0.9 | 2.4 | 5.4 | – | 1520 | 1.3 | 0.5 | 0.6 | 0.8 | – | – | – | – | CC1(CO)CCN(c2cc(Nc3ccnc(-c4cnn(S(=O)(=O)C5CC5)c4)n3)ncc2C#Cc2cnn(C(F)F)c2)CC1 [Example 305, (1-(2-((2-(1-(Cyclopropylsulfonyl)-1H-pyrazol-4-yl)pyrimidin-4-yl)amino)-5-((1-(difluoromethyl)-1H-pyrazol-4-yl)ethynyl)pyridin-4-yl)-4-methylpiperidin-4-yl)methanol] | –
0.3 | 0.6 | 2.4 | 75.1 | – | 9810 | – | – | – | – | – | 1.3 | 4.1 | 10.4 | O=S(=O)(C1CC1)n1cc(-c2nccc(Nc3cc(NC4CCC(CO)CC4)c(C#CC4CCCO4)cn3)n2)cn1 (stereo not drawn) [Example 374, ((1s,4s)-4-((2-((2-(1-(Cyclopropylsulfonyl)-1H-pyrazol-4-yl)pyrimidin-4-yl)amino)-5-((tetrahydrofuran-2-yl)ethynyl)pyridin-4-yl)amino)cyclohexyl)methanol] | IC50 [1, 20]: 0.3 nM; IC50 [2, 21]: 0.3 nM
1.7 | 2.9 | 3.6 | 55.6 | – | 9350 | – | – | – | – | – | 5.3 | 2.7 | 45.8 | CC1(O)CCN(c2cc(Nc3ccnc(-c4cnn(S(=O)(=O)C5CC5)c4)n3)ncc2C#CC2(C)CC2)CC1 [Example 404, 1-(2-((2-(1-(Cyclopropylsulfonyl)-1H-pyrazol-4-yl)pyrimidin-4-yl)amino)-5-((1-methylcyclopropyl)ethynyl)pyridin-4-yl)-4-methylpiperidin-4-ol] | –
7 | 9.8 | 4.3 | 21.7 | – | 3580 | 3 | 1.5 | 2.2 | 3.2 | 8.1 | – | – | – | CC1(CO)CCN(c2cc(Nc3ccnc(-c4cnn(S(=O)(=O)C5CC5)c4)n3)ncc2C#Cc2ccc(CN3CCOCC3)s2)CC1 [Example 191, (1-(2-((2-(1-(Cyclopropylsulfonyl)-1H-pyrazol-4-yl)pyrimidin-4-yl)amino)-5-((5-(morpholinomethyl)thiophen-2-yl)ethynyl)pyridin-4-yl)-4-methylpiperidin-4-yl)methanol] | –
1.6 | 2 | 2.3 | 4.1 | 1.4 | 1040 | – | – | – | – | – | – | – | – | CC1(CO)CCN(c2cc(Nc3ccnc(-c4cnn(S(=O)(=O)C5CC5)c4)n3)ncc2C#Cc2cnn(C3CCOCC3)c2)CC1 [Example 95, (1-(2-((2-(1-(Cyclopropylsulfonyl)-1H-pyrazol-4-yl)pyrimidin-4-yl)amino)-5-((1-(tetrahydro-2H-pyran-4-yl)-1H-pyrazol-4-yl)ethynyl)pyridin-4-yl)-4-methylpiperidin-4-yl)methanol] | IC50 [1, 7]: 1.5 nM; IC50 [2, 9]: 0.9 nM; IC50 [3, 11]: 2.7 nM; IC50 [5, 14]: 5 nM
3.3 | 4.4 | 7.1 | 81.2 | – | > 10000 | 5.3 | 3.1 | 4.2 | 9.8 | 23.9 | – | – | – | CC1(CO)CCN(c2cc(Nc3ccnc(-c4cnn(S(=O)(=O)C5CC5)c4)n3)ncc2C#Cc2ccc(CN3CCOCC3)cc2)CC1 [Example 253, (1-(2-((2-(1-(Cyclopropylsulfonyl)-1H-pyrazol-4-yl)pyrimidin-4-yl)amino)-5-((4-(morpholinomethyl)phenyl)ethynyl)pyridin-4-yl)-4-methylpiperidin-4-yl)methanol] | –
1.6 | 1.5 | 2.6 | 55.1 | – | > 10000 | – | – | – | – | – | 2.2 | 3.6 | 26.7 | CC1(C#Cc2cnc(Nc3ccnc(-c4cnn(S(=O)(=O)C5CC5)c4)n3)cc2N[C@H]2CC[C@@H](O)CC2)CC1 [Example 359, (1s,4s)-4-((2-((2-(1-(Cyclopropylsulfonyl)-1H-pyrazol.-4-yl)pyrimidin-4-yl)amino)-5-((1-methylcyclopropyl)ethynyl)pyridin-4-yl)amino)cyclohexan-1-ol] | IC50 [1, 20]: 0.9 nM; IC50 [2, 21]: 0.4 nM
0.4 | 1.3 | 6.5 | 34.1 | – | > 10000 | 0.1 | 0.03 | 2.3 | 4.2 | 8.6 | – | – | – | CN(C)CC1(F)CCN(c2cc(Nc3ccnc(-c4cnn(S(=O)(=O)C5CC5)c4)n3)ncc2C#Cc2cnn(C)c2)CC1 [Example 293, 2-(1-(Cyclopropylsulfonyl)-1H-pyrazol-4-yl)-N-(4-(4-((dimethylamino)methyl)-4-fluoropiperidin-1-yl)-5-((1-methyl-1H-pyrazol-4-yl)ethynyl)pyridin-2-yl)pyrimidin-4-amine formate] | –
2.6 | 8.8 | 53.6 | 203 | 32.3 | > 10000 | – | – | – | – | – | – | – | – | Cn1cc(C#Cc2cnc(Nc3ccnc(-c4cnn(S(=O)(=O)C5CC5)c4)n3)cc2NCC(C)(C)CO)cn1 [Example 39, 3-((2-((2-(1-Cyclopropylsulfonylpyrazol-4-yl)pyrimidin-4-yl)amino)-5-(2-(1-methylpyrazol-4-yl)ethynyl)-4-pyridyl)amino)-2,2-dimethyl-propan-1-ol] | –
0.5 | 0.7 | 3.2 | 90.8 | – | 8720 | – | – | – | – | – | 1 | 4 | 7.7 | CC1OCCC1C#Cc1cnc(Nc2ccnc(-c3cnn(S(=O)(=O)C4CC4)c3)n2)cc1NC1CCC(O)CC1 (stereo not drawn) [Example 433, (1 s,4s)-4-((2-((2-(1-(cyclopropylsulfonyl)-1H-pyrazol-4-yl)pyrimidin-4-yl)amino)-5-((2-methyltetrahydrofuran-3-yl)ethynyl)pyridin-4-yl)amino)cyclohexan-1-ol] | IC50 [1, 20]: 0.4 nM; IC50 [2, 21]: 0.2 nM

Compound | IC50 [1, 6] [nM] | IC50 [2, 8] [nM] | IC50 [3, 10] [nM] | IC50 [4, 12] [nM] | IC50 [4, 13] [nM] | IC50 ([5]; IC50 WT (nM), 100 μM ATP) [nM] | IC50 [1, 15] [nM] | IC50 [2, 16] [nM] | IC50 [3, 17] [nM] | IC50 [4, 18] [nM] | IC50 [5, 19] [nM] | IC50 [3, 22] [nM] | IC50 [4, 23] [nM] | IC50 [5, 24] [nM] | other results
CN(C)C(=O)Cn1cc(C#Cc2cnc(Nc3ccnc(-c4cnn(S(=O)(=O)C5CC5)c4)n3)cc2N[C@H]2CC[C@@](C)(O)CC2)cn1 [Example 221, 2-(4-((6-((2-(1-(Cyclopropylsulfonyl)-1H-pyrazol-4-yl)pyrimidin-4-yl)amino)-4-(((1s,4s)-4-hydroxy-4-methylcyclohexyl)amino)pyridin-3-yl)ethynyl)-1H-pyrazol-1-yl)-N,N-dimethylacetamide] | – | – | – | – | 3.8 | – | – | – | – | – | – | – | – | – | IC50 [1, 7]: 2.9 nM; IC50 ([1]; read-out: IC50 Del19/T790M/C797S (nM), 100 μM ATP): 2 nM; IC50 [2, 9]: 0.8 nM; IC50 ([2]; read-out: IC50 L858R/T790M/C797S (nM), 100 μM ATP): 2.2 nM; IC50 [3, 11]: 6.3 nM; IC50 ([3]; read-out: IC50 Del19/C797S (nM), 100 μM ATP): 8.4 nM; IC50 ([4]; read-out: IC50 L858R/C797S (nM), 100 μM ATP): 33 nM; IC50 [5, 14]: 65 nM; IC50 ([5]; read-out: IC50 WT (nM), 100 μM ATP): > 10000 nM
